# Results from the supplement of paper PMC10307832.
# Legend:
# Experiment in all cases: relative viability (nuclei count vs DMSO), 5 days (fraction); higher = more cells survive
# Linsitinib + Foretinib = compound: C[C@]1(O)C[C@@H](c2nc(-c3ccc4ccc(-c5ccccc5)nc4c3)c3c(N)nccn32)C1 [Linsitinib] + COc1cc2c(Oc3ccc(NC(=O)C4(C(=O)Nc5ccc(F)cc5)CC4)cc3F)ccnc2cc1OCCCN1CCOCC1 [Foretinib] (partner 0.25 µM)
# How it was run: (§1)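 Dosing by pin tool came one day after lung cancer cell lines were seeded in 1536-well plates, using either one drug or a fixed anchor-drug dose plus five library-drug doses (not always all listed) in √10 steps. After 5 days, nuclei were counted on 4× images. Relative viability is treated-well nuclei count divided by vehicle-well nuclei count, and values are medians of duplicate plates.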
# Linsitinib + AZD7762 = compound: C[C@]1(O)C[C@@H](c2nc(-c3ccc4ccc(-c5ccccc5)nc4c3)c3c(N)nccn32)C1 [Linsitinib] + NC(=O)Nc1cc(-c2cccc(F)c2)sc1C(=O)N[C@H]1CCCNC1 [AZD7762] (partner 0.2 µM)
# How it was run: as §1
# Ispinesib + Dasatinib = compound: Cc1ccc(C(=O)N(CCCN)[C@@H](c2nc3cc(Cl)ccc3c(=O)n2Cc2ccccc2)C(C)C)cc1 [Ispinesib] + Cc1nc(Nc2ncc(C(=O)Nc3c(C)cccc3Cl)s2)cc(N2CCN(CCO)CC2)n1 [Dasatinib] (partner 0.075 µM)
# How it was run: as §1
# Ispinesib + AZD7762 = compound: Cc1ccc(C(=O)N(CCCN)[C@@H](c2nc3cc(Cl)ccc3c(=O)n2Cc2ccccc2)C(C)C)cc1 [Ispinesib] + NC(=O)Nc1cc(-c2cccc(F)c2)sc1C(=O)N[C@H]1CCCNC1 [AZD7762] (partner 0.2 µM)
# How it was run: as §1
Cell Line,relative viability (Linsitinib + Foretinib; first compound 0.01 µM),relative viability (Linsitinib + Foretinib; first compound 0.03162 µM),relative viability (Linsitinib + Foretinib; first compound 0.1 µM),relative viability (Linsitinib + Foretinib; first compound 0.3162 µM),relative viability (Linsitinib + Foretinib; first compound 1 µM),relative viability (Linsitinib + AZD7762; first compound 0.01 µM),relative viability (Linsitinib + AZD7762; first compound 0.03162 µM),relative viability (Linsitinib + AZD7762; first compound 0.1 µM),relative viability (Linsitinib + AZD7762; first compound 0.3162 µM),relative viability (Linsitinib + AZD7762; first compound 1 µM),relative viability (Ispinesib + Dasatinib; first compound 0.001 µM),relative viability (Ispinesib + Dasatinib; first compound 0.003162 µM),relative viability (Ispinesib + Dasatinib; first compound 0.01 µM),relative viability (Ispinesib + Dasatinib; first compound 0.03162 µM),relative viability (Ispinesib + Dasatinib; first compound 0.1 µM),relative viability (Ispinesib + AZD7762; first compound 0.001 µM),relative viability (Ispinesib + AZD7762; first compound 0.003162 µM),relative viability (Ispinesib + AZD7762; first compound 0.01 µM),relative viability (Ispinesib + AZD7762; first compound 0.03162 µM),relative viability (Ispinesib + AZD7762; first compound 0.1 µM)
EMC-BAC-2,0.95,0.979,1.1,0.907,0.819,1.12,1.07,1.1,0.775,0.553,0.354,0.236,0.351,0.257,0.19,1.22,1.23,1.34,0.704,0.599
NCI-H441,0.928,1.18,0.834,0.835,0.492,1.2,1.07,1.29,0.831,0.898,0.713,0.634,0.453,0.293,0.266,1.41,1.22,1.44,0.64,0.309
LCLC-103H,0.75,0.771,0.751,0.709,0.704,0.785,0.721,0.84,0.9,0.634,0.553,0.506,0.602,0.302,0.244,0.849,0.836,0.887,0.484,0.434
HOP-62,1.09,1.05,1.06,–,1.16,0.583,0.577,0.769,–,0.298,0.815,0.824,0.837,0.534,0.251,0.441,0.848,0.679,0.482,0.214
NCI-H1793,0.629,0.765,0.643,0.602,0.681,0.577,0.559,0.39,0.352,0.169,0.361,0.412,0.451,0.334,0.141,0.476,0.494,0.352,0.412,0.295
NCI-H1355,0.973,0.964,0.873,0.811,0.759,0.66,0.604,0.633,0.602,0.329,0.82,0.836,0.625,0.379,0.423,0.783,0.847,0.805,0.448,0.284
A-427,1.12,1.15,1.19,–,1.11,0.749,0.624,0.742,–,0.535,0.668,0.793,0.817,0.396,0.161,0.853,0.817,0.976,0.462,0.32
LXF-289,0.968,0.944,0.984,–,0.994,1.04,1.04,1.13,0.731,1.04,0.308,0.215,0.197,0.209,0.0629,1.09,1.12,1.22,0.788,0.119
